In patent US5710018A, “Mammalian influx peptide transporter” (Eli Lilly and Company, priority 1995, dated 1998):
Where a SMILES comes first, the peptide text is derived from it.

Assays:
control CHO-K1 cells = assay: [14C]cephalexin uptake by control CHO-K1 cells transfected with plasmid pRc/RSV; assay type: in vitro ADME, Chinese hamster; settings: Gly-L-Pro coincubation
[1] = target: T1, influx peptide transporter (Homo sapiens, UniProt Q12864); settings: Clone 9; 50 mM Gly-L-Pro
T1 sequence (Q12864 23-832 K115E/E734D/E739A): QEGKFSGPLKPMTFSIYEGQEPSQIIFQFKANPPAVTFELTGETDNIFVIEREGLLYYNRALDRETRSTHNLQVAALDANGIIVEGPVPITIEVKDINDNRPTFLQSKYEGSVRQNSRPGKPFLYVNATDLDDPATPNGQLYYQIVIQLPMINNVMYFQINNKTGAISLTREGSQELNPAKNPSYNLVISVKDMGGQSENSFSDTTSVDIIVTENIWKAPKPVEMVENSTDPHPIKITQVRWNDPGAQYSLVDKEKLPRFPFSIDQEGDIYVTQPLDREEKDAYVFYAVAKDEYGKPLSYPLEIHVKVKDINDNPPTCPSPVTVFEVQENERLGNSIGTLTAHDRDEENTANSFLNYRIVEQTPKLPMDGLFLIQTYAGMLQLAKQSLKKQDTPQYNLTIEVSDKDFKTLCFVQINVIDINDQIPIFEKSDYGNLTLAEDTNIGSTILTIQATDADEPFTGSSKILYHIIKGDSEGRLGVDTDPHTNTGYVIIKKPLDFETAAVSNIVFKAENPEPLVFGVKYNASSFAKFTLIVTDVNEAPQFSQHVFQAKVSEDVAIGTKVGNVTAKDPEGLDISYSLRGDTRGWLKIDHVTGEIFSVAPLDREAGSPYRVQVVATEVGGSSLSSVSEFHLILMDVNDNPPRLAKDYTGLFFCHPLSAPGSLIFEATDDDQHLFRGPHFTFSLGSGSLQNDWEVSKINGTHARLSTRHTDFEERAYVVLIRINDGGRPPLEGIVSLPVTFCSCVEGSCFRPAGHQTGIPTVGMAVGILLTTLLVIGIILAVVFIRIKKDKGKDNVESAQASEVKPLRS
Protocol: Chinese hamster ovary cells (CHO-K1, ATCC CCL 61) were transfected with plasmid pPSJ179 using a calcium precipitation protocol described in the Stratagene mammalian transfection kit (Stratagene Catalog #200285). […] The calcium precipitation protocol transfection method was carried out as follows. Subconfluent CHO-K1 cells (100 mm culture dish, 1-day post plating) were incubated for 20 minutes at 37° C. with 20 μg of a calcium-precipitated DNA sample. The DNA sample was either plasmid pPSJ179 or, as control, plasmid pRc/RSV. Subsequently, the cells were grown for 3 days in F12 medium containing 10% fetal bovine serum (Hyclone Laboratories Inc., Logan, Utah 84321). Afterwards, the medium was replaced with growth medium containing the selection agent, G-418 sulfate at 300 μg/ml (Gibco, Grand Island, N.Y.) and cells were grown in a 3% CO2 incubator at 37° C. for 13 days. Colonies which were selected for further study were grown for selected time periods in the selection medium at 37° C. in a 5% CO2 incubator. Transfectants were evaluated for expression of the influx peptide transporter using an enzyme linked immunosorbent assay (ELISA) and monoclonal antibody reactive with the influx peptide transporter.
The transfected CHO-K1 cells (~0.5 to 1×10^5 cells per well) were grown for 3 days in a Costar 24-well plate as described above. […]

inhibition of uptake of 1 mM cephalexin [1]: inhibited
SMILES: NCC(=O)N1CCC[C@H]1C(=O)O [Gly-L-Pro] (H-Gly-Pro-OH)
inhibition of transport of 1 mM [14C]cephalexin (control CHO-K1 cells): not inhibited
